Drawing on ChEMBL document CHEMBL1153605, “Synthesis and in vivo antidiabetic activity of novel dispiropyrrolidines through [3+2] cycloaddition reactions with thiazolidinedione and rhodanine derivatives” (2009), this text covers Activity for six compounds.

What all share (type): functional
The subject of experiment [1] is Rattus norvegicus. The experiment can be described thus: Antidiabetic activity in alloxan-induced diabetic Wistar rat model assessed as reduction in blood glucose level at 36 mg/kg, po administered once daily for 15 days measured after 1 hr postdose.
Experiment [2] concerns Rattus norvegicus. As to the kind of experiment: Antidiabetic activity in alloxan-induced diabetic Wistar rat model assessed as reduction in blood glucose level at 36 mg/kg, po administered once daily for 15 days measured after 3 hrs postdose.
Experiment [3] deals with Rattus norvegicus. As to the kind of experiment: Antidiabetic activity in alloxan-induced diabetic Wistar rat model assessed as reduction in blood glucose level at 36 mg/kg, po administered once daily for 15 days measured after 6 hrs postdose.
The subject of experiment [4] is Rattus norvegicus. As to the kind of experiment: Reduction of serum GPT level in alloxan-induced diabetic Wistar rat model at 36 mg/kg, po administered once daily for 15 days measured on day 18.
In experiment [5] the test system is Rattus norvegicus. As to the kind of experiment: Reduction of serum creatinine level in alloxan-induced diabetic Wistar rat model at 36 mg/kg, po administered once daily for 15 days measured on day 18.
For experiment [6], the system named is Rattus norvegicus. As to the kind of experiment: Reduction of blood urea nitrogen level in alloxan-induced diabetic Wistar rat model at 36 mg/kg, po administered once daily for 15 days measured on day 18.
Experiment [7] concerns Rattus norvegicus. The experiment can be described thus: Reduction of liver GPT level in alloxan-induced diabetic Wistar rat model assessed per mg of protein at 36 mg/kg, po administered once daily for 15 days measured on day 18.
The test system of experiment [8] is Rattus norvegicus. The experiment can be described thus: Reduction of liver ALP level in alloxan-induced diabetic Wistar rat model at 36 mg/kg, po administered once daily for 15 days measured on day 18.

On to `COc1ccc([C@H]2CN(C)[C@@]3(C(=O)Nc4ccccc43)[C@@]23SC(=O)NC3=S)cc1OC`, for which the Activity turned out to be 140.5 mg/dL in the experiment with Rattus norvegicus [1]; 106.5 mg/dL in the experiment on Rattus norvegicus [2]; 95.8 mg/dL in the experiment on Rattus norvegicus [3]; 121 U/ml in the experiment on Rattus norvegicus [4]; 2.2 mg/dL with Rattus norvegicus [5]; 35.5 mg/dL with Rattus norvegicus [6]. The Activity in the experiment with Rattus norvegicus [7] was 576 U/mg protein; in the experiment on Rattus norvegicus [8], 42.3 KA/dl.
For the compound `Cc1ccc([C@H]2CN(C)[C@@]3(C(=O)Nc4ccccc43)[C@@]23SC(=O)NC3=O)cc1`, the Activity with Rattus norvegicus [1] was 140.5 mg/dL; in the experiment on Rattus norvegicus [2], 136.5 mg/dL; with Rattus norvegicus [3], 125.5 mg/dL; in the experiment on Rattus norvegicus [4], 129.8 U/ml; in the experiment on Rattus norvegicus [5], 1.8 mg/dL; in the experiment on Rattus norvegicus [6], 37.5 mg/dL. Besides, the Activity came out at 558 U/mg protein in the experiment on Rattus norvegicus [7] and 38.3 KA/dl with Rattus norvegicus [8].
With `CN1C[C@H](c2ccc(F)c(F)c2)[C@]2(SC(=O)NC2=O)[C@]12C(=O)Nc1ccccc12`, the Activity stood at 134.5 mg/dL in the experiment with Rattus norvegicus [1]; 123.5 mg/dL in the experiment on Rattus norvegicus [2]; 115.3 mg/dL with Rattus norvegicus [3]; 132 U/ml in the experiment with Rattus norvegicus [4]; 2.1 mg/dL with Rattus norvegicus [5]; 35 mg/dL in the experiment on Rattus norvegicus [6]. In addition, the Activity is 582 U/mg protein with Rattus norvegicus [7] and 41.3 KA/dl in the experiment with Rattus norvegicus [8].
`CN1C[C@H](c2ccc(O)c(O)c2)[C@]2(SC(=O)NC2=S)[C@]12C(=O)Nc1ccccc12`: the Activity was determined as 175.5 mg/dL in the experiment with Rattus norvegicus [1]; 158.5 mg/dL with Rattus norvegicus [2]; 120.5 mg/dL with Rattus norvegicus [3]; 142.8 U/ml in the experiment on Rattus norvegicus [4]; 2 mg/dL in the experiment with Rattus norvegicus [5]; 39 mg/dL with Rattus norvegicus [6]. For the same compound, the Activity was 646 U/mg protein with Rattus norvegicus [7] and 43.8 KA/dl in the experiment with Rattus norvegicus [8].
With `CN1C[C@H](c2ccc(F)c(F)c2)[C@]2(SC(=O)NC2=S)[C@]12C(=O)Nc1ccccc12`, the Activity in the experiment on Rattus norvegicus [1] came out at 137.5 mg/dL; with Rattus norvegicus [2], 112.8 mg/dL; with Rattus norvegicus [3] it was 106.5 mg/dL; in the experiment on Rattus norvegicus [4], 137.5 U/ml; with Rattus norvegicus [5], 1.5 mg/dL; with Rattus norvegicus [6], 38.5 mg/dL. Moreover, the Activity in the experiment on Rattus norvegicus [7] was determined as 626 U/mg protein; in the experiment on Rattus norvegicus [8], 37 KA/dl.
Consider `COc1ccc([C@H]2CN(C)[C@@]3(C(=O)Nc4ccccc43)[C@@]23SC(=O)NC3=O)cc1OC`, for which the Activity with Rattus norvegicus [1] was found to be 133.5 mg/dL; with Rattus norvegicus [2], 123.8 mg/dL; in the experiment on Rattus norvegicus [3] it was 115.8 mg/dL; in the experiment on Rattus norvegicus [4], 140.5 U/ml; in the experiment with Rattus norvegicus [5], 1.8 mg/dL; in the experiment on Rattus norvegicus [6] it was 41.8 mg/dL. Moreover, the Activity was 698 U/mg protein with Rattus norvegicus [7] and 48.5 KA/dl in the experiment with Rattus norvegicus [8].
